Measurements reported in PubChem BioAssay AID1963428 (Molecular Pharmacology Branch, DTP, NCI, 2024).
“And” between values parts separate entries of the source, which are not always exact repeats. Equal values may be shown once.

System: 171881-019-R-J1-PDC complex spheroid growth, % test/control
Test: Anticancer human tumor 171881-019-R-J1-PDC patient-derived invasive breast carcinoma cell line growth inhibition [Asc]
Conditions: for viability, T/C: stronger effect = lower value; active = viability on the fitted dose curve at most 10% of control; inactive = the rest
How it was run: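 Complex spheroids combining tumor cells with HUVEC endothelial cells and human MSCs, at 37 degrees C, 5% CO2; agents tested alone or combined, half-log dilutions from at or near clinical Cmax, or 10 microM if Cmax unknown.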

[1] = curve of first compound, second compound 0.1 µM
[2] = curve of first compound, second compound 0.316 µM
[3] = curve of first compound, second compound 1 µM
[4] = second compound 0.1 µM, first compound 0.00316 µM
[5] = second compound 0.1 µM, first compound 0.01 µM
[6] = second compound 0.1 µM, first compound 0.0316 µM
[7] = second compound 0.1 µM, first compound 0.1 µM
[8] = second compound 0.1 µM, first compound 0.316 µM
[9] = second compound 0.1 µM, first compound 1 µM
[10] = second compound 0.316 µM, first compound 0.00316 µM
[11] = second compound 0.316 µM, first compound 0.01 µM
[12] = second compound 0.316 µM, first compound 0.0316 µM
[13] = second compound 0.316 µM, first compound 0.1 µM
[14] = second compound 0.316 µM, first compound 0.316 µM
[15] = second compound 0.316 µM, first compound 1 µM
[16] = second compound 1 µM, first compound 0.00316 µM
[17] = second compound 1 µM, first compound 0.01 µM
[18] = second compound 1 µM, first compound 0.0316 µM
[19] = second compound 1 µM, first compound 0.1 µM
[20] = second compound 1 µM, first compound 0.316 µM
[21] = second compound 1 µM, first compound 1 µM
[22] = curve of first compound, second compound 0.03 µM
[23] = curve of first compound, second compound 0.0949 µM
[24] = curve of first compound, second compound 0.3 µM
[25] = curve of first compound, second compound 0.949 µM
[26] = curve of first compound, second compound 3 µM
[27] = second compound 0.03 µM, first compound 0.00316 µM
[28] = second compound 0.03 µM, first compound 0.01 µM
[29] = second compound 0.03 µM, first compound 0.0316 µM
[30] = second compound 0.03 µM, first compound 0.1 µM
[31] = second compound 0.0949 µM, first compound 0.00316 µM
[32] = second compound 0.0949 µM, first compound 0.01 µM
[33] = second compound 0.0949 µM, first compound 0.0316 µM
[34] = second compound 0.0949 µM, first compound 0.1 µM
[35] = second compound 0.3 µM, first compound 0.00316 µM
[36] = second compound 0.3 µM, first compound 0.01 µM
[37] = second compound 0.3 µM, first compound 0.0316 µM
[38] = second compound 0.3 µM, first compound 0.1 µM
[39] = second compound 0.949 µM, first compound 0.00316 µM
[40] = second compound 0.949 µM, first compound 0.01 µM
[41] = second compound 0.949 µM, first compound 0.0316 µM
[42] = second compound 0.949 µM, first compound 0.1 µM
[43] = second compound 3 µM, first compound 0.00316 µM
[44] = second compound 3 µM, first compound 0.01 µM
[45] = second compound 3 µM, first compound 0.0316 µM
[46] = second compound 3 µM, first compound 0.1 µM
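Throughout, for viability, T/C: spheroids exposed to compounds for 7 days.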

CNC(C)C(=O)NC1CN(S(=O)(=O)c2cccc(S(=O)(=O)N3CCC4CCC(C(=O)NC(c5ccccc5)c5ccccc5)N4C(=O)C(NC(=O)C(C)NC)C3)c2)CCC2CCC(C(=O)NC(c3ccccc3)c3ccccc3)N2C1=O (configuration not stated) + Cc1c(S(C)(=O)=O)c(-c2cc(F)cc(N3CCN(c4ccc(NS(=O)(=O)c5ccc(NC(CCN6CCC(C(=O)OCCCP(=O)(O)O)CC6)CSc6ccccc6)c(S(=O)(=O)C(F)(F)F)c5)cc4)CC3)c2)c(-c2ccc(Cl)cc2)n1C(C)C
> 1000 nM: IC50 [1] | IC50 [2] | IC50 [3] | IC50 (curve of first compound, second compound 3.16 µM) | IC50 (curve of first compound, second compound 10 µM)
inactive: viability, T/C [4] 100% | viability, T/C [5] 90.4% | viability, T/C [6] 96% | viability, T/C [7] 87.8% | viability, T/C [8] 82.5% | viability, T/C [9] 73.2% | viability, T/C [10] 110% | viability, T/C [11] 109% | viability, T/C [12] 94.9% | viability, T/C [13] 112% | viability, T/C [14] 90.8% | viability, T/C [15] 97.2% | viability, T/C [16] 90.1% | viability, T/C [17] 133% | viability, T/C [18] 129% | viability, T/C [19] 107% | viability, T/C [20] 104% | viability, T/C [21] 119% | viability, T/C (second compound 3.16 µM, first compound 0.00316 µM) 138% | viability, T/C (second compound 3.16 µM, first compound 0.01 µM) 141% | viability, T/C (second compound 3.16 µM, first compound 0.0316 µM) 144% | viability, T/C (second compound 3.16 µM, first compound 0.1 µM) 130% | viability, T/C (second compound 3.16 µM, first compound 0.316 µM) 126% | viability, T/C (second compound 3.16 µM, first compound 1 µM) 156% | viability, T/C (second compound 10 µM, first compound 0.00316 µM) 204% | viability, T/C (second compound 10 µM, first compound 0.01 µM) 171% | viability, T/C (second compound 10 µM, first compound 0.0316 µM) 172% | viability, T/C (second compound 10 µM, first compound 0.1 µM) 183% | viability, T/C (second compound 10 µM, first compound 0.316 µM) 161% | viability, T/C (second compound 10 µM, first compound 1 µM) 173%

COc1c(OCCCN2CCOCC2)ccc2c3n(c(=NC(=O)c4cnc(N)nc4)nc12)CCN3 + CCN1C(C(=O)NC23CCC(C(=O)O)(CC2)CC3)C(c2cccc(Cl)c2F)C2(C(=O)Nc3cc(Cl)ccc32)C12CCCCC2
active: viability, T/C (second compound 0.03 µM, first compound 0.316 µM) 3.58% | viability, T/C (second compound 0.03 µM, first compound 1 µM) 1.48% | viability, T/C (second compound 0.0949 µM, first compound 0.316 µM) 3.64% | viability, T/C (second compound 0.0949 µM, first compound 1 µM) 1.16% | viability, T/C [38] 14.6% | viability, T/C (second compound 0.3 µM, first compound 0.316 µM) 3.71% | viability, T/C (second compound 0.3 µM, first compound 1 µM) 0.99% | viability, T/C (second compound 0.949 µM, first compound 0.316 µM) 3.5% | viability, T/C (second compound 0.949 µM, first compound 1 µM) 1.21% | viability, T/C (second compound 3 µM, first compound 0.316 µM) 2.19% | viability, T/C (second compound 3 µM, first compound 1 µM) 1.28%
35.7 nM: IC50 [22]
33.1 nM: IC50 [25]
36.7 nM: IC50 [23]
36.1 nM: IC50 [24]
29.7 nM: IC50 [26]
inactive: viability, T/C [27] 158% | viability, T/C [28] 118% | viability, T/C [29] 48.1% | viability, T/C [30] 25.7% | viability, T/C [31] 182% | viability, T/C [32] 141% | viability, T/C [33] 55% | viability, T/C [34] 13.6% | viability, T/C [35] 143% | viability, T/C [36] 133% | viability, T/C [37] 53.8% | viability, T/C [39] 159% | viability, T/C [40] 126% | viability, T/C [41] 50.9% | viability, T/C [42] 12.8% | viability, T/C [43] 171% | viability, T/C [44] 122% | viability, T/C [45] 46.1% | viability, T/C [46] 9.69%

CCN1CCN(Cc2ccc(Nc3ncc(F)c(-c4cc(F)c5nc(C)n(C(C)C)c5c4)n3)nc2)CC1 + CNC(C)C(=O)NC1CN(S(=O)(=O)c2cccc(S(=O)(=O)N3CCC4CCC(C(=O)NC(c5ccccc5)c5ccccc5)N4C(=O)C(NC(=O)C(C)NC)C3)c2)CCC2CCC(C(=O)NC(c3ccccc3)c3ccccc3)N2C1=O
inactive: viability, T/C (second compound 0.01 µM, first compound 0.00316 µM) 94.1% | viability, T/C (second compound 0.01 µM, first compound 0.01 µM) 102% | viability, T/C (second compound 0.01 µM, first compound 0.0316 µM) 102% | viability, T/C (second compound 0.01 µM, first compound 0.1 µM) 113% | viability, T/C (second compound 0.01 µM, first compound 0.316 µM) 131% | viability, T/C (second compound 0.01 µM, first compound 1 µM) 147% | viability, T/C (second compound 0.0316 µM, first compound 0.00316 µM) 89.7% | viability, T/C (second compound 0.0316 µM, first compound 0.01 µM) 97.9% | viability, T/C (second compound 0.0316 µM, first compound 0.0316 µM) 112% | viability, T/C (second compound 0.0316 µM, first compound 0.1 µM) 124% | viability, T/C (second compound 0.0316 µM, first compound 0.316 µM) 149% | viability, T/C (second compound 0.0316 µM, first compound 1 µM) 143% | viability, T/C [4] 112% | viability, T/C [5] 107% | viability, T/C [6] 117% | viability, T/C [7] 128% | viability, T/C [8] 143% | viability, T/C [9] 174% | viability, T/C [10] 101% | viability, T/C [11] 110% | viability, T/C [12] 121% | viability, T/C [13] 130% | viability, T/C [14] 142% | viability, T/C [15] 143% | viability, T/C [16] 89.7% | viability, T/C [17] 110% | viability, T/C [18] 117% | viability, T/C [19] 139% | viability, T/C [20] 131% | viability, T/C [21] 146%
> 1000 nM: IC50 (curve of first compound, second compound 0.01 µM) | IC50 (curve of first compound, second compound 0.0316 µM) | IC50 [1] | IC50 [2] | IC50 [3]

COc1c(OCCCN2CCOCC2)ccc2c3n(c(=NC(=O)c4cnc(N)nc4)nc12)CCN3
17.4% and 14.1% and 19.9%: viability, T/C (compound 0.1 µM)
33.9 nM and 30.9 nM and 24.8 nM: IC50 (curve of compound)
inactive: viability, T/C (compound 0.00316 µM) 148% and 152% and 226% | viability, T/C (compound 0.01 µM) 115% and 134% and 153% | viability, T/C (compound 0.0316 µM) 50.5% and 46.9% and 61.2%
3.09% and 3.26% and 4.21%: viability, T/C (compound 0.316 µM)
1.31% and 1.02% and 4.37%: viability, T/C (compound 1 µM)

Cn1ncnc1[C@H]1c2n[nH]c(=O)c3cc(F)cc(c23)N[C@@H]1c1ccc(F)cc1 + CCN1C(C(=O)NC23CCC(C(=O)O)(CC2)CC3)C(c2cccc(Cl)c2F)C2(C(=O)Nc3cc(Cl)ccc32)C12CCCCC2
> 100 nM: IC50 [22] | IC50 [23] | IC50 [24] | IC50 [25] | IC50 [26]
inactive: viability, T/C (second compound 0.03 µM, first compound 0.000316 µM) 93.2% | viability, T/C (second compound 0.03 µM, first compound 0.001 µM) 110% | viability, T/C [27] 107% | viability, T/C [28] 103% | viability, T/C [29] 105% | viability, T/C [30] 96.8% | viability, T/C (second compound 0.0949 µM, first compound 0.000316 µM) 102% | viability, T/C (second compound 0.0949 µM, first compound 0.001 µM) 95.5% | viability, T/C [31] 95.8% | viability, T/C [32] 111% | viability, T/C [33] 104% | viability, T/C [34] 114% | viability, T/C (second compound 0.3 µM, first compound 0.000316 µM) 99.5% | viability, T/C (second compound 0.3 µM, first compound 0.001 µM) 126% | viability, T/C [35] 101% | viability, T/C [36] 104% | viability, T/C [37] 109% | viability, T/C [38] 109% | viability, T/C (second compound 0.949 µM, first compound 0.000316 µM) 115% | viability, T/C (second compound 0.949 µM, first compound 0.001 µM) 115% | viability, T/C [39] 120% | viability, T/C [40] 108% | viability, T/C [41] 115% | viability, T/C [42] 120% | viability, T/C (second compound 3 µM, first compound 0.000316 µM) 119% | viability, T/C (second compound 3 µM, first compound 0.001 µM) 111% | viability, T/C [43] 115% | viability, T/C [44] 110% | viability, T/C [45] 110% | viability, T/C [46] 114%
